{"source": "ChEMBL document CHEMBL1201862", "about": "“PubChem BioAssay data set” (2004)", "key": {"[1]": {"target": "Beta-2 adrenergic receptor (Homo sapiens, UniProt P07550)", "sequence (P07550 whole entry)": "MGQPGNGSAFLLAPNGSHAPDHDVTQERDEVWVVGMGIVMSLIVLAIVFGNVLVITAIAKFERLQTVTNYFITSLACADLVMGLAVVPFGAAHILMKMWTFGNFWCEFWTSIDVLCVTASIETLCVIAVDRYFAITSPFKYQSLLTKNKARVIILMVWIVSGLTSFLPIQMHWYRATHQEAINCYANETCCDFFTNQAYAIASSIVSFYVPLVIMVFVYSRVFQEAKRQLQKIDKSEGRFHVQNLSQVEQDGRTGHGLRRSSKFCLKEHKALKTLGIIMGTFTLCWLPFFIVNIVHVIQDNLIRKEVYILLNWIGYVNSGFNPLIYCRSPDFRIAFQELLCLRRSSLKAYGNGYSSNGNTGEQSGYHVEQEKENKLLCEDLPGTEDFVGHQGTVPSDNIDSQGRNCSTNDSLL", "assay": "beta2AR agonists driving receptor internalization, dose response, cell-based, FAP fluorogen, flow cytometry, cherry pick 1 (AID 588763)", "type": "functional"}, "[2]": {"assay": "NIH-3T3 fibroblast cytotoxicity, dose response, cytotoxicity control, cell-based, fluorescence, Alamar Blue, secondary assay (AID 2327);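 also: NIH-3T3 mouse fibroblasts cultured with fluconazole at 8 µg/mL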", "type": "functional"}, "[3]": {"assay": "microbe, parasite or virus in culture", "type": "functional", "conditions": "Mycobacterium tuberculosis"}, "[4]": {"target": "Serine/threonine-protein phosphatase (Candida dubliniensis (strain CD36 / CBS 7987 / NCPF 3949 / NRRLY-17841) (Yeast), UniProt B9W6M3)", "sequence (B9W6M3 whole entry)": "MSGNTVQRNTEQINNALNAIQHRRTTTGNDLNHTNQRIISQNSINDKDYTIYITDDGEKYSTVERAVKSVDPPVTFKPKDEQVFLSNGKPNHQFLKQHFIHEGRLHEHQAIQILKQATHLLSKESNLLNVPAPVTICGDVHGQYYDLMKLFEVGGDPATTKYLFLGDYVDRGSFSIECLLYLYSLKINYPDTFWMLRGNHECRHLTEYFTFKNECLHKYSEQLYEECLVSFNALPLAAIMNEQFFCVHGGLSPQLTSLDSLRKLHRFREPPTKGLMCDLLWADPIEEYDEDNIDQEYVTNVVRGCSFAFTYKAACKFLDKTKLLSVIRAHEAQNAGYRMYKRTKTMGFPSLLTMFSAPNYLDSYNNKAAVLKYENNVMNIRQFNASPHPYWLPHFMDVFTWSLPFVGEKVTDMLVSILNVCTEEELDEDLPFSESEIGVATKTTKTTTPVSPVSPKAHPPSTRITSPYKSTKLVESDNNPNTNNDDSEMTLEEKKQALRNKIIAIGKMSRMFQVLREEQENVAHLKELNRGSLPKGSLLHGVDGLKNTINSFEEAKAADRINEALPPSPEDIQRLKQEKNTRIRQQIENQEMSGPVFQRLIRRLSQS", "assay": "calcineurin pathway inhibitors in yeast reporter, dose response, S. cerevisiae, CDRE-lacZ, luminescence, secondary (AID 2388);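 also: yeast reporter cells carrying a calcineurin-responsive lacZ construct stimulated with calcium chloride; luminescent beta-galactosidase reporter signal in whole cells rather than isolated phosphatase activity; potency for inhibition where a drop in reporter signal means calcineurin blockade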", "type": "functional, cell-based"}, "[5]": {"target": "ATP-dependent molecular chaperone HSP82 (Candida albicans (strain WO-1) (Yeast), UniProt C4YTQ8)", "sequence (C4YTQ8 whole entry)": "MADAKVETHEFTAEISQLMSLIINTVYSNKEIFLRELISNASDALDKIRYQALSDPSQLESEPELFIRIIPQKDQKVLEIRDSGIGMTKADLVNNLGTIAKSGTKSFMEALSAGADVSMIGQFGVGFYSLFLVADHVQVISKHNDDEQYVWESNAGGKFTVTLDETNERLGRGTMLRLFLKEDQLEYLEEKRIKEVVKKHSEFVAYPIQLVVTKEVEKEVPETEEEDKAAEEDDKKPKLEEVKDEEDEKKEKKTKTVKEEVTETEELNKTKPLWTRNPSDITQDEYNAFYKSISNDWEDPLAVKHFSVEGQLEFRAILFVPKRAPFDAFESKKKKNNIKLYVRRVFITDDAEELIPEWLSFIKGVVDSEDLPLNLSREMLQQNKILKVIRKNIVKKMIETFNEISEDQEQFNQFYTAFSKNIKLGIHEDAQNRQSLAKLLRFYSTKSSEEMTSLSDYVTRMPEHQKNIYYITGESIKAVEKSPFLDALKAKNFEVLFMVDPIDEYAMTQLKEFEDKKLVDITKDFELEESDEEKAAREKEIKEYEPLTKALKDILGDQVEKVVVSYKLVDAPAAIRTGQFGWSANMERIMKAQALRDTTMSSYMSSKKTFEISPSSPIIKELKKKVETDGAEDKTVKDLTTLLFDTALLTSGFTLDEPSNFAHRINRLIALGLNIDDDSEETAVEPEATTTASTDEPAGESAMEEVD", "assay": "loss of DOC-induced GRE-beta-galactosidase reporter signal, dose response, Hsp90 inhibitor project, S. cerevisiae, luminescence (AID 2400);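 also: beta-galactosidase luminescence from glucocorticoid response element reporter as proxy for Hsp90 function; inhibitor potency where signal loss means Hsp90 inhibition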", "type": "functional, cell-based"}, "[6]": {"assay": "C. albicans growth with fluconazole, confirmation, fluorescence, retest (AID 2467)", "type": "functional, cell-based"}, "[7]": {"assay": "growth induction of Burl-1 ts yeast mutant, dose response, counter-screen for SUMOylation pathway inhibitor project, whole organism, S. cerevisiae, luminescence (AID 463199)", "type": "functional"}, "CAAX prenyl protease 2 [8]": {"target": "CAAX prenyl protease 2 (Saccharomyces cerevisiae S288c, UniProt Q03530)", "sequence (Q03530 whole entry)": "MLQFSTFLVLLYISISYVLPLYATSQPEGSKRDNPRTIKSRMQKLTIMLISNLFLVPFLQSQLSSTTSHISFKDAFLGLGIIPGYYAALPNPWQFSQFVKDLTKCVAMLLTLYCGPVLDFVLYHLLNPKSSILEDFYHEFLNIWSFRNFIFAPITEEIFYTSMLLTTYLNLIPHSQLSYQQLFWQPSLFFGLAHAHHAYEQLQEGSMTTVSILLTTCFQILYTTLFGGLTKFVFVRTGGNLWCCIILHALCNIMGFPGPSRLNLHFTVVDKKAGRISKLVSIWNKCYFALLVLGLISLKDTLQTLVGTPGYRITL", "type": "biochemical"}, "CAAX prenyl protease 2 [9]": {"target": "CAAX prenyl protease 2 (Homo sapiens, UniProt Q9Y256)", "sequence (Q9Y256 whole entry)": "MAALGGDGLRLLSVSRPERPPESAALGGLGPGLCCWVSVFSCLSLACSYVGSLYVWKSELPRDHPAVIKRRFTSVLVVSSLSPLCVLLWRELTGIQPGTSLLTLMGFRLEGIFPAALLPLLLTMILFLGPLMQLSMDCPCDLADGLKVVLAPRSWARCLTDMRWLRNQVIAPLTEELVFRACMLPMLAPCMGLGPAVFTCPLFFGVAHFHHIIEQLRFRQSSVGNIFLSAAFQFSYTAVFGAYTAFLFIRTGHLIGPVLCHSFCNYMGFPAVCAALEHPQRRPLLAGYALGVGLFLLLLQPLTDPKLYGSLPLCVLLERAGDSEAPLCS", "assay": "human Rce1 protease inhibitors, dose response, biochemical, yeast membranes, quenched-peptide fluorescence, cherry-pick (AID 588849)"}, "[10]": {"assay": "inhibitors of HIV Env-driven cell fusion, dose response, cherry-pick (AID 652057)", "type": "functional, cell-based"}, "[11]": {"assay": "inhibitors of clade B AD8 Env fusion, dose response, cell-based, cherry-pick (AID 652062);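 also: potency is for inhibitors of fusion seen as a drop in luminescence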", "type": "functional"}, "[12]": {"assay": "ZM109 Env clade C HIV-1 fusion inhibitors, dose response, HeLa effector, CEM target cells, luciferase, cherry-pick (AID 652058)", "type": "functional, cell-based"}, "A-375": {"test_system": "A-375", "assay": "A375 melanoma cell viability reduction, dose response, counter-screen for MITF modulator project, cherry-pick samples, set 2 (AID 540335)", "type": "functional, cell-based", "conditions": "Homo sapiens"}, "[13]": {"target": "T1, Microphthalmia-associated transcription factor (Homo sapiens, UniProt O75030)", "T1 sequence (O75030 whole entry)": "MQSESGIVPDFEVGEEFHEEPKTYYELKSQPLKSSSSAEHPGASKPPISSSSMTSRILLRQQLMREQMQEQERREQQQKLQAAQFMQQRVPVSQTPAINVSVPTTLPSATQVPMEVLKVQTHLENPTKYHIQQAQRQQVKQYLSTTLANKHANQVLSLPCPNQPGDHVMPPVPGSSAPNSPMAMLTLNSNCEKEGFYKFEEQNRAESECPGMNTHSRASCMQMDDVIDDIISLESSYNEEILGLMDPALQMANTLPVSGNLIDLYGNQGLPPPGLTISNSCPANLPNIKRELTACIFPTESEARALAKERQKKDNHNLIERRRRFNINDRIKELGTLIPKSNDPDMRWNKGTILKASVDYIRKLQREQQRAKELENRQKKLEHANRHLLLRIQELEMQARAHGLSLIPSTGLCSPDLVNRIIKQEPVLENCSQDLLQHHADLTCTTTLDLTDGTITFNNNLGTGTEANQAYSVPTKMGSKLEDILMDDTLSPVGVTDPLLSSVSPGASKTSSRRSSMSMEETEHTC", "assay": "TRPM1 promoter luciferase signal decrease, dose response, MITF inhibitor project, cell-based, SK-MEL-5, cherry-picked, set 3 (AID 493073)", "type": "functional"}, "[14]": {"assay": "CEM21 lymphoblast cell cytotoxicity, dose response, cytotoxicity control for viral fusion inhibitor project, CellTiter-Glo luminescence, cherry-picked (AID 652042);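 also: potency for signal decrease meaning cytotoxicity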", "type": "functional, cell-based"}, "[15]": {"target": "G-protein coupled receptor 55 (Homo sapiens, UniProt Q9Y2T6)", "sequence (Q9Y2T6 whole entry)": "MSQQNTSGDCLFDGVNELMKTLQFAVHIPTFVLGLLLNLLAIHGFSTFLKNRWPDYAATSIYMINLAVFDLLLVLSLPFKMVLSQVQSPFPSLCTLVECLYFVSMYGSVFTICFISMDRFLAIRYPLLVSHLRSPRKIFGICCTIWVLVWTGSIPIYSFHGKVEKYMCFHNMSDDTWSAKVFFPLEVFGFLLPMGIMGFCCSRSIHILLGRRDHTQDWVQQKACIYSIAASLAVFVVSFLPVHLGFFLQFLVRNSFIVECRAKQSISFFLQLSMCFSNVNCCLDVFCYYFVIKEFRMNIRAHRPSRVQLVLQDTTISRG", "assay": "GPR55 agonists via beta-arrestin recruitment, primary screen, imaging, U2OS cells, beta-arrestin-GFP redistribution (AID 1961)", "type": "functional"}, "INS1": {"test_system": "INS1", "assay": "beta cell apoptosis inhibitors, cytokine rescue, dose response, luminescence, retest (AID 449756);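 also: cell death triggered by IL-1 beta plus TNF-alpha plus IFN-gamma mixture; protective hits raise ATP signal compared with cytokine alone wells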", "type": "functional, cell-based", "conditions": "Rattus norvegicus"}, "Vero": {"test_system": "Vero", "assay": "cells", "type": "functional", "conditions": "Chlorocebus sabaeus"}, "[16]": {"target": "Eukaryotic translation initiation factor 4E (Mus musculus, UniProt P63073)", "sequence (P63073 whole entry)": "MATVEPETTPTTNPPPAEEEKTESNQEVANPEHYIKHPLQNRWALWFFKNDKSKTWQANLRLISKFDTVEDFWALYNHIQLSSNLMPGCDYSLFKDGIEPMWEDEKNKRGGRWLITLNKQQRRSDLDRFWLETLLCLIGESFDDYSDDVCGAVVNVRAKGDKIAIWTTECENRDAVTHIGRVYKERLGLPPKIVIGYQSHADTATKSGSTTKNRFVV", "assay": "eIF4E–eIF4G protein interaction inhibitors, dose response, biochemical, TR-FRET (AID 855);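 also: potency for disrupting eIF4E binding to eIF4GI seen as loss of FRET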", "type": "functional"}}, "note": "The source made the active and inactive calls.", "data": [{"smiles": "CCn1c(COc2ccc(Cl)cc2)nnc1SCc1ccc(C#N)cc1", "values": [{"measurement": "EC50", "setting": "[1]", "value": "2.11 µM (active)"}]}, {"smiles": "CCc1ccc(C2c3[nH]c4ccccc4c3CCN2C(=O)c2ccc(=O)n(C)n2)cc1", "note": "(centres undefined)", "values": [{"measurement": "EC50", "setting": "[2]", "value": "> 160 µM (inconclusive)"}, {"measurement": "CC50", "setting": "[3]", "value": "> 40 µM (active)"}, {"measurement": "EC50", "setting": "[4]", "value": "> 180 µM (inactive)"}, {"measurement": "EC50", "setting": "[5]", "value": "> 160 µM (inactive)"}, {"measurement": "EC50", "setting": "[6]", "value": "0.223 µM (active)"}]}, {"smiles": "O=C(CSc1nnc(CNC(=O)c2ccco2)o1)Nc1nc2ccccc2s1", "values": [{"measurement": "AC50", "setting": "[7]", "value": "54 µM (active)"}]}, {"smiles": "O=C(OC[C@@H]1CCCN2CCCC[C@H]12)c1cc2ccccc2oc1=O", "values": [{"measurement": "AC50", "setting": "CAAX prenyl protease 2 [8]", "value": "16.3 µM (active)"}, {"measurement": "AC50", "setting": "CAAX prenyl protease 2 [9]", "value": "55.9 µM (active)"}]}, {"smiles": "Cc1ccc(NC2c3ncccc3C(=O)N2C2CCCCC2)cc1C", "note": "(centres undefined)", "values": [{"measurement": "AC50", "setting": "[7]", "value": "161 µM (active)"}]}, {"smiles": "CC1CCC(C(C)C)C(OC(=O)Cn2c(-c3ccc(Cl)cc3)[n+](C)c3ccccc32)C1", "note": "(centres undefined)", "values": [{"measurement": "AC50", "setting": "[10]", "value": "15.7 µM (active)"}, {"measurement": "AC50", "setting": "[11]", "value": "10.8 µM (active)"}, {"measurement": "AC50", "setting": "[12]", "value": "11.7 µM (active)"}, {"measurement": "AC50", "setting": "A-375", "value": "26.3 µM (active)"}, {"measurement": "AC50", "setting": "[13]", "value": "6.29 µM (active)"}, {"measurement": "AC50", "setting": "[14]", "value": "9.28 µM (active)"}, {"measurement": "EC50", "setting": "[15]", "value": "> 32 µM (inactive)"}, {"measurement": "AC50", "setting": "INS1", "value": "3.42 µM (active)"}, {"measurement": "CC50", "setting": "Vero", "value": "> 25 µM (active)"}]}, {"smiles": "Cc1ccc(OCc2cc(C(=O)NCc3cnn(-c4cccc(F)c4)c3)no2)cn1", "values": [{"measurement": "EC50", "setting": "[2]", "value": "> 160 µM (inactive)"}, {"measurement": "EC50", "setting": "[6]", "value": "0.964 µM (active)"}, {"measurement": "EC50", "setting": "[1]", "value": "0.195 µM (active)"}]}, {"smiles": "O=c1c(-c2ccccc2)coc2c(CN3CCCC3)c(O)ccc12", "values": [{"measurement": "AC50", "setting": "CAAX prenyl protease 2 [9]", "value": "16.2 µM (active)"}, {"measurement": "IC50", "setting": "[16]", "value": "> 64 µM (inactive)"}]}]}
